molecular target: GABAA receptor; test: Steroid inhibition of [35S]-TBPS binding; conditions: rat brain cortical membranes, 3 nM [35S]-TBPS, in the presence of 5 mM GABA
Method: Steroid Inhibition of TBPS Binding
Briefly, cortices are rapidly removed following decapitation of carbon dioxide-anesthetized Sprague-Dawley rats ([…]). The cortices are homogenized in 10 volumes of ice-cold 0.32 M sucrose using a glass/teflon homogenizer and centrifuged at 1500×g for 10 min at 4° C. The resultant supernatants are centrifuged at 10,000×g for 20 min at 4° C. to obtain the P2 pellets. The P2 pellets are resuspended in 200 mM NaCl/50 mM Na—K phosphate pH 7.4 buffer and centrifuged at 10,000×g for 10 min at 4° C. This washing procedure is repeated twice and the pellets are resuspended in 10 volumes of buffer. Aliquots ([…]) of the membrane suspensions are incubated with 3 nM [^35S]-TBPS and […] aliquots of test drug dissolved in dimethyl sulfoxide (DMSO) (final 0.5%) in the presence of 5 mM GABA. The incubation is brought to a final volume of 1.0 mL with buffer. […] Following a 90 min incubation at room temp, the assays are terminated by filtration through glass fiber filters (Schleicher and Schuell No. 32) using a cell harvester (Brandel) and rinsed three times with ice-cold buffer. Filter bound radioactivity is measured by liquid scintillation spectrometry. Non-linear curve fitting of the overall data for each drug averaged for each concentration is done using Prism (GraphPad).
Various compounds are or can be screened to determine their potential as modulators of [^35S]-TBPS binding in vitro. These assays are or can be performed in accordance with the above discussed procedures.

**Q.** Which IC50 does the source give for `CCOC[C@@]1(O)CC[C@H]2[C@@H](CC[C@@H]3[C@@H]2CC[C@]2(C)[C@@H](C(=O)CNc4ccccc4)CC[C@@H]32)C1` [Compound 86] here?
**A.** Its IC50 is 100 to 500 nM.

**Q.** With `CCOC[C@@]1(O)CC[C@H]2[C@H](CC[C@@H]3[C@@H]2CC[C@]2(C)[C@@H](C(=O)N[C@H](C)c4ccc(C#N)cc4)CC[C@@H]32)C1` [Compound 48] as the compound, how does the IC50 read?
**A.** The IC50 was 100 to 500 nM.

**Q.** With `C[C@@]1(O)CC[C@H]2[C@H](CC[C@@H]3[C@@H]2CC[C@]2(C)[C@@H](c4cncnc4)CC[C@@H]32)C1` [Compound 104] as the compound, how does the IC50 read?
**A.** Its IC50 is 50 to 100 nM.

**Q.** How did the IC50 turn out when `C[C@@H](c1ccccc1)N(C)C(=O)[C@H]1CC[C@H]2[C@@H]3CC[C@@H]4C[C@](C)(O)CC[C@@H]4[C@H]3CC[C@]12C` [Compound 21] was run?
**A.** The IC50 was 10 to 50 nM.

**Q.** Which IC50 does the source give for `CCO[C@H]1C[C@@]2(C)[C@@H](CC[C@H]3[C@@H]4CC[C@H]([N+](=O)[O-])[C@@]4(C)CC(=O)[C@@H]32)C[C@@H]1O` [Compound 123] here?
**A.** The IC50 was 50 to 100 nM.

**Q.** For `CCOC[C@@]1(O)CC[C@H]2[C@H](CC[C@@H]3[C@@H]2CC[C@]2(C)[C@@H](C(=O)CNc4ccccc4)CC[C@@H]32)C1` [Compound 84], which IC50 is on record?
**A.** The IC50 was 10 to 50 nM.

**Q.** How did the IC50 turn out when `C[C@@]1(O)CC[C@H]2[C@H](CC[C@@H]3[C@@H]2CC[C@]2(C)[C@@H](C(=O)N4CCCOCC4)CC[C@@H]32)C1` [Compound 6] was run?
**A.** The IC50 was > 500 nM.

**Q.** Which IC50 does the source give for `C[C@@]1(O)CC[C@H]2[C@H](CC[C@@H]3[C@@H]2CC[C@]2(C)[C@@H](C(=O)NC4CCOCC4)CC[C@@H]32)C1` [Compound 29] here?
**A.** Its IC50 is > 500 nM.

**Q.** Which IC50 does the source give for `CCOC[C@@]1(O)CC[C@H]2[C@H](CC[C@@H]3[C@@H]2CC[C@]2(C)[C@@H](C(=O)N[C@H](CC)c4ccc(F)cc4)CC[C@@H]32)C1` [Compound 58] here?
**A.** The IC50 was > 500 nM.

**Q.** With `C[C@@]1(O)CC[C@@]2(C)[C@@H](CC[C@@H]3[C@@H]2CC[C@]2(C)[C@@H](Nc4ccc(F)cc4)CC[C@@H]32)C1` [Compound 89] as the compound, how does the IC50 read?
**A.** Its IC50 is 100 to 500 nM.

**Q.** Which IC50 does the source give for `C[C@@H]1CCCCN1C(=O)[C@H]1CC[C@H]2[C@@H]3CC[C@@H]4C[C@](C)(O)CC[C@@H]4[C@H]3CC[C@]12C` [Compound 25] here?
**A.** The IC50 was 100 to 500 nM.

**Q.** For `C[C@@]1(O)CC[C@H]2[C@H](CC[C@@H]3[C@@H]2CC[C@]2(C)[C@@H](C(=O)NCc4ccncc4)CC[C@@H]32)C1` [Compound 11], which IC50 is on record?
**A.** Its IC50 is > 500 nM.

**Q.** Which IC50 does the source give for `C[C@@]1(O)CC[C@H]2[C@@H](CC[C@@H]3[C@@H]2CC[C@]2(C)[C@@H](C(=O)CNc4ccccc4)CC[C@@H]32)C1` [Compound 64] here?
**A.** Its IC50 is 50 to 100 nM.

**Q.** Which IC50 does the source give for `COC[C@]12CC[C@@](C)(O)C[C@H]1CC[C@H]1[C@@H]3CC[C@H](C(=O)CN(C)c4ccccc4)[C@@]3(C)CC[C@@H]12` [Compound 75] here?
**A.** The IC50 was 10 to 50 nM.

**Q.** `C[C@@]1(O)CC[C@H]2[C@H](CC[C@@H]3[C@@H]2CC[C@]2(C)[C@@H](C(=O)CNc4ccc(F)cc4)CC[C@@H]32)C1` [Compound 40] was tested. Which IC50 did it give?
**A.** Its IC50 is < 10 nM.

**Q.** With `C[C@@]1(O)CC[C@H]2[C@H](CC[C@@H]3[C@@H]2CC[C@]2(C)[C@@H](C(=O)NCC4CCCCC4)CC[C@@H]32)C1` [Compound 17] as the compound, how does the IC50 read?
**A.** Its IC50 is 100 to 500 nM.

**Q.** For `CCOC[C@@]1(O)CC[C@H]2[C@H](CC[C@@H]3[C@@H]2CC[C@]2(C)[C@@H](C(=O)CN(C)c4ccccc4)CC[C@@H]32)C1` [Compound 83], which IC50 is on record?
**A.** The IC50 was 100 to 500 nM.

**Q.** For `CN(CC(=O)[C@H]1CC[C@H]2[C@@H]3CC[C@@H]4C[C@](C)(O)CC[C@@H]4[C@H]3CC[C@]12C)c1cccc(F)c1` [Compound 42], which IC50 is on record?
**A.** The IC50 was 10 to 50 nM.

**Q.** How did the IC50 turn out when `COC[C@]12CC[C@](O)(C(F)(F)F)C[C@H]1CC[C@H]1[C@@H]3CC[C@H](C(=O)Nc4ccccc4)[C@@]3(C)CC[C@@H]12` [Compound 78] was run?
**A.** The IC50 was 50 to 100 nM.

**Q.** For `C[C@@]1(O)CC[C@@]2(C)[C@@H](CC[C@@H]3[C@@H]2CC[C@]2(C)[C@@H](NCc4ccccc4)CC[C@@H]32)C1` [Compound 92], which IC50 is on record?
**A.** Its IC50 is > 500 nM.

**Q.** `C[C@@]1(O)CC[C@@]2(C)[C@@H](CC[C@@H]3[C@@H]2CC[C@]2(C)[C@@H](Nc4cccc(F)c4)CC[C@@H]32)C1` [Compound 90] was tested. Which IC50 did it give?
**A.** Its IC50 is 100 to 500 nM.

**Q.** `C[C@@]1(O)CC[C@H]2[C@@H](CC[C@@H]3[C@@H]2CC[C@@]2(C)[C@H]3CCC2(O)c2ccccc2)C1` (stereo in doubt) [Compound 100] was tested. Which IC50 did it give?
**A.** Its IC50 is > 500 nM.

**Q.** `CCOC[C@@]1(O)CC[C@H]2[C@H](CC[C@@H]3[C@@H]2CC[C@]2(C)[C@@H](C(=O)N4CCC[C@@H]4c4ncco4)CC[C@@H]32)C1` [Compound 60] was tested. Which IC50 did it give?
**A.** The IC50 was > 500 nM.

**Q.** Which IC50 does the source give for `CN(C(=O)[C@H]1CC[C@H]2[C@@H]3CC[C@@H]4C[C@](C)(O)CC[C@@H]4[C@H]3CC[C@]12C)c1ccccc1` [Compound 7] here?
**A.** Its IC50 is > 500 nM.

**Q.** With `C[C@@]1(O)CC[C@H]2[C@H](CC[C@@H]3[C@@H]2CC[C@]2(C)[C@@H](C(=O)N4CCCc5ccccc54)CC[C@@H]32)C1` [Compound 35] as the compound, how does the IC50 read?
**A.** The IC50 was 100 to 500 nM.

**Q.** `CCN(CC)C(=O)[C@H]1CC[C@H]2[C@@H]3CC[C@@H]4C[C@](C)(O)CC[C@@H]4[C@H]3CC[C@]12C` [Compound 2] was tested. Which IC50 did it give?
**A.** Its IC50 is 100 to 500 nM.

**Q.** Which IC50 does the source give for `C[C@@H](NC(=O)[C@H]1CC[C@H]2[C@@H]3CC[C@@H]4C[C@](C)(O)CC[C@@H]4[C@H]3CC[C@]12C)c1ccccc1` [Compound 20] here?
**A.** Its IC50 is 100 to 500 nM.

**Q.** For `C[C@@]1(O)CC[C@H]2[C@H](CC[C@@H]3[C@@H]2CC[C@]2(C)[C@@H](C(=O)NCC4CCOCC4)CC[C@@H]32)C1` [Compound 24], which IC50 is on record?
**A.** The IC50 was > 500 nM.

**Q.** With `CN([C@H]1CC[C@H]2[C@@H]3CC[C@H]4C[C@](C)(O)CC[C@]4(C)[C@H]3CC[C@]12C)S(=O)(=O)c1ccccc1` [Compound 96] as the compound, how does the IC50 read?
**A.** Its IC50 is > 500 nM.

**Q.** `C[C@H]1CCCCN1C(=O)[C@H]1CC[C@H]2[C@@H]3CC[C@@H]4C[C@](C)(O)CC[C@@H]4[C@H]3CC[C@]12C` [Compound 28] was tested. Which IC50 did it give?
**A.** Its IC50 is 100 to 500 nM.

**Q.** How did the IC50 turn out when `CO[C@H]1C[C@@]2(C)[C@@H](CC[C@@H]3[C@@H]2[C@@H](O)C[C@]2(C)[C@@H]([N+](=O)[O-])CC[C@@H]32)C[C@@H]1O` [Compound 120] was run?
**A.** Its IC50 is 100 to 500 nM.

**Q.** With `CCOC[C@@]1(O)CC[C@H]2[C@H](CC[C@@H]3[C@@H]2CC[C@]2(C)[C@@H](C(=O)N(C)[C@@H](CC)c4ccc(F)cc4)CC[C@@H]32)C1` [Compound 57] as the compound, how does the IC50 read?
**A.** Its IC50 is 100 to 500 nM.

**Q.** Which IC50 does the source give for `C[C@@]1(O)CC[C@H]2[C@H](CC[C@@H]3[C@@H]2CC[C@]2(C)[C@@H](C(=O)NCCc4ccccc4)CC[C@@H]32)C1` [Compound 19] here?
**A.** The IC50 was 100 to 500 nM.

**Q.** For `CO[C@H]1C[C@@]2(C)[C@@H](CC[C@@H]3[C@@H]2CC[C@]2(C)[C@@H]([N+](=O)[O-])CC[C@@H]32)C[C@@H]1O` [Compound 118], which IC50 is on record?
**A.** Its IC50 is 10 to 50 nM.

**Q.** How did the IC50 turn out when `CN(Cc1cccnc1)C(=O)[C@H]1CC[C@H]2[C@@H]3CC[C@@H]4C[C@](C)(O)CC[C@@H]4[C@H]3CC[C@]12C` [Compound 16] was run?
**A.** Its IC50 is 100 to 500 nM.

**Q.** `C[C@@]1(O)CC[C@H]2[C@H](CC[C@@H]3[C@@H]2CC[C@]2(C)[C@@H](c4ccncc4)CC[C@@H]32)C1` [Compound 103] was tested. Which IC50 did it give?
**A.** Its IC50 is 10 to 50 nM.
